Measured values as given in patent US11993581B2, “Pyridazine compounds for inhibiting Nav1.8” (Lieber Institute, Inc., priority 2018, dated 2024).

Molecular target: T1, human Nav1.8 (hNav1.8) ion channel (Homo sapiens, UniProt Q9Y5Y9)
T1 construct: expressed in transfected cells
Assay: Nav1.8 inhibition, estimated IC50 (Nav1.8 fluorescence, PatchXpress and/or IonFlux HT automated patch clamp assay)
Assay type: cell-based
Conditions: HEK293 cells stably expressing hNav1.8; determined using one or more of the described methods; read-out: Activity range (estimated IC50)
Description: The ability of pyridine carboxamide derivatives exemplified above to inhibit the Nav1.8 channel was determined using one or more of the methods described below.
HEK Nav1.8 β1/β2 Stably Expressing Cell Line
A HEK293 cell line stably expressing the human Nav1.8 (hNav1.8) ion channel with β1/β2 subunits was constructed. The cell line is suitable for IC50 determination in fluorescence and electrophysiological based assays. It is also suitable to conduct mechanism of action pharmacology studies in electrophysiological assays. HEK293 Nav1.8 cells are grown as adherent monolayers in DMEM/high glucose media, 10% fetal bovine serum, Na pyruvate (2 mM), Hepes (10 mM) with selection agents G418 (400 mg/L) and puromycin (0.5 mg/L) at 37 degrees C., 10% CO2.
Nav1.8 Fluorescence Inhibition Assay
Compounds were made up to or supplied as a 10-mM stock solution using DMSO as the vehicle. Concentration-response curves were generated using a Matrix multichannel pipettor. Compound source plates were made by diluting 10 mM compound stocks to create 500 μM (100×) solutions in DMSO in 96-well v-bottom plates. Compounds were then serially diluted in 100% DMSO to generate a 5 point, 4-fold dilution scheme dose response curve. 2 μL of the 100× dose response curves were then added to preincubation and stimulation assay plates. 100 μL of pre-incubation buffer and 200 μl of stimulation buffer was then added to the plates resulting in a final assay test concentration range of 5 μM to 0.02 μM with a final DMSO concentration of 1%.
On the day of assay, plates were washed to remove cell culture media using 2K EBSS buffer (135 mM NaCl, 2 mM KCl, 5 mM Glucose, 2 mM CaCl2, 1 mM MgCl2, 10 mM HEPES, pH 7.4). The Na-sensitive fluorescent dye, Asante Natrium Green-2 (ANG-2) was incubated for 60 min to allow equilibration and then washed with 2K EBSS. Plates were then transferred to a fluorescence plate reader (FLIPR™, Molecular Devices) for fluorescence measurement using an excitation wavelength of 490 nm and an emission wavelength of 565 nm. Compounds were pre-incubated for 5 min at final test concentration in the presence of ouabain (30 μM) to inhibit Na+ efflux through Na+/K+ exchanger. Following the pre-incubation phase, hNav1.8 channels were stimulated with 10 μM of the pyrethroid deltamethrin to prevent channel inactivation. The assay was run for 15 minutes with vehicle and 30 μM tetracaine serving as negative and positive controls, respectively. The peak change in fluorescence relative to negative and positive control wells was calculated and fit with a logistic equation to determine IC50.
PatchXpress Nav1.8 Inhibition Assay
HEK-Nav1.8 β1/β2 cells were recorded in whole cell patch-clamp using the PatchXpress automated patch clamp platforms (Molecular Devices). Cell suspensions were obtained by trypsinization of adherent monolayers, followed by gentle rocking for minimally 30 min. Compounds were prepared from 10 mM DMSO stocks.
Nav1.8 channel variants were evaluated using Protocol 1 in which cells were initially voltage clamped at a holding potential of −100 mV to maintain Nav1.8 in a closed resting state. After current amplitude becomes stable, the mid-point voltage of steady state inactivation was determined for each cell using a series of 5 sec conditioning steps to increasingly depolarized voltages (−100 to 0 mV) The holding potential was then reset to a voltage that produces ˜50% inactivation (Vhalf-set automatically via PatchXpress scripts) so that closed and inactivated channel inhibition could be assessed. Protocol 1 was run at a frequency of 0.1 Hz until current amplitude is steady (automatically determined by PatchXpress scripts). The effect of test reagent on Nav current amplitude was monitored using custom PatchXpress stability scripts which determines the timing of compound addition and washout.
Data were processed and analyzed using DataXpress 2.0 (Molecular Devices). […]

T1 sequence (Q9Y5Y9 whole entry): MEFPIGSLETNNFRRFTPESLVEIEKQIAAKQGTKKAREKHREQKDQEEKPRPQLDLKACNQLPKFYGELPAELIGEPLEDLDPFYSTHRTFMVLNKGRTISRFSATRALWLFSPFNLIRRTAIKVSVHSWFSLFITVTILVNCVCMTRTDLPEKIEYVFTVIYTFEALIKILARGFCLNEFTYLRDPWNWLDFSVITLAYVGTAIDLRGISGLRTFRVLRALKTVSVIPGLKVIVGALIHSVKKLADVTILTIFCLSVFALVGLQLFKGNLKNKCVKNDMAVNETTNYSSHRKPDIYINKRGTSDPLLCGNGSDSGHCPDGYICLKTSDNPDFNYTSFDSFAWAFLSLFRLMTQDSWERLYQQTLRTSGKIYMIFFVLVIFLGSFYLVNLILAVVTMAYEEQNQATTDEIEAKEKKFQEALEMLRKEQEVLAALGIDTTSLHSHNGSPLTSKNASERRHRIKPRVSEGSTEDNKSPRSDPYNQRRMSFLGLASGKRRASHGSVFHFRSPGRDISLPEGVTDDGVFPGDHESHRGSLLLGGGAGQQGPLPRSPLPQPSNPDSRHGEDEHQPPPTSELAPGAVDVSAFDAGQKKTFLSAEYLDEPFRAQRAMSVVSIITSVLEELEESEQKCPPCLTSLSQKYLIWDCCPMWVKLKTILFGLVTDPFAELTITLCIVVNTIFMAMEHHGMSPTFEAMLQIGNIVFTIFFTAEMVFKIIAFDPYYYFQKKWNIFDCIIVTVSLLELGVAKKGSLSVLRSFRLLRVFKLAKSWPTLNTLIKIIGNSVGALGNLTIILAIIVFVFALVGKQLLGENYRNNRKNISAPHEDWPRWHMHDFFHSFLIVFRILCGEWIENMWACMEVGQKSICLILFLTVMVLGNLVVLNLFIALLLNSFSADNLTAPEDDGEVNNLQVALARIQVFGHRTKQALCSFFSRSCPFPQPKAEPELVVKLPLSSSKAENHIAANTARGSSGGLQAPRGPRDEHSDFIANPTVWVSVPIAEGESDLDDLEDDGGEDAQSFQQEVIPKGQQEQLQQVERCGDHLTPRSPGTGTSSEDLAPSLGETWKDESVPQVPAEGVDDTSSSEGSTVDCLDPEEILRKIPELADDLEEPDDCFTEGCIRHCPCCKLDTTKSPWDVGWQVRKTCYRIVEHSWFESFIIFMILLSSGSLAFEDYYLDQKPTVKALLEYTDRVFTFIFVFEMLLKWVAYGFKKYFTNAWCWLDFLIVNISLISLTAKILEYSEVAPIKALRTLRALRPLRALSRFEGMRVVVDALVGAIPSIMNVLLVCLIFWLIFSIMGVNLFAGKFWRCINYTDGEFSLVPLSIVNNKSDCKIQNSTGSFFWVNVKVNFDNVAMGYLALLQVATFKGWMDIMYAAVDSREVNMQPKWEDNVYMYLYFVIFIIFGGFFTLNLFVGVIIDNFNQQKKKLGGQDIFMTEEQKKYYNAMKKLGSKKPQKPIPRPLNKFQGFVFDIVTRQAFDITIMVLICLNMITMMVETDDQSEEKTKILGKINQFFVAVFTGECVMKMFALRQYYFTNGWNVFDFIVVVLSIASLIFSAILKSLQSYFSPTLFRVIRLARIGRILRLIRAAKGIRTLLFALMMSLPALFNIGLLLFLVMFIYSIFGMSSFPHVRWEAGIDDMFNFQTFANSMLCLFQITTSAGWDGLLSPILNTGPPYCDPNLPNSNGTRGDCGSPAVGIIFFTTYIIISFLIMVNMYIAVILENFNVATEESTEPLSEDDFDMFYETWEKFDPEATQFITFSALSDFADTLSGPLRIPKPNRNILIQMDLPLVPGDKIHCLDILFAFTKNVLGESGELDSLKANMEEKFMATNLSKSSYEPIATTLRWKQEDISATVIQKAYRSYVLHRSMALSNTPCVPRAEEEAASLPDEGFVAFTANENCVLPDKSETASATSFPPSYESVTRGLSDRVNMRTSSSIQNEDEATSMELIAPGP
T1 sequence (Q07699 19-218 partner): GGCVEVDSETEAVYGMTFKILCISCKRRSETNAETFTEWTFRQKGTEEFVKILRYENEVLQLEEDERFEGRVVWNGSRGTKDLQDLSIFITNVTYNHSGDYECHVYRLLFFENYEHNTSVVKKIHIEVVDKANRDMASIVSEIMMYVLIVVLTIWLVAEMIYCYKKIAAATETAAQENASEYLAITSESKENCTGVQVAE

SMILES	IC50 [nM]
O=C(NCc1cccnc1N1CCCC1)c1cnnc(-c2ccc(OCC3CC3)c(Cl)c2)c1 [Example 29, 6-[3-chloro-4-(cyclopropylmethoxy)phenyl]-N-[(2-pyrrolidin-1-yl-3-pyridyl)methyl]pyridazine-4-carboxamide]	< 500
O=C(NCc1cccnc1N1CCCCC1)c1cnnc(-c2ccc(OCC3CC3)c(Cl)c2)c1 [Example 30, 6-[3-chloro-4-(cyclopropylmethoxy)phenyl]-N-[[2-(1-piperidyl)-3-pyridyl]methyl]pyridazine-4-carboxamide]	< 500
O=C(NCc1cc(F)cnc1N1CCOCC1)c1cnnc(-c2ccc(OCC3CC3)c(Cl)c2)c1 [Example 31, 6-[3-chloro-4-(cyclopropylmethoxy)phenyl]-N-[(5-fluoro-2-morpholino-3-pyridyl)methyl]pyridazine-4-carboxamide]	< 500
O=C(NCc1cccnc1N1C[C@@H]2C[C@H]1CO2)c1cnnc(-c2ccc(OCC3CC3)c(Cl)c2)c1 [Example 34, 6-[3-chloro-4-(cyclopropylmethoxy)phenyl]-N-[[2-[(1S,4S)-2-oxa-5-azabicyclo[2.2.1]heptan-5-yl]-3-pyridyl]methyl]pyridazine-4-carboxamide]	< 500
COc1ccccc1CNC(=O)c1cnnc(-c2ccc(OCC3CC3)c(Cl)c2)c1 [Example 36, 6-[3-chloro-4-(cyclopropylmethoxy)phenyl]-N-[(2-methoxyphenyl)methyl]pyridazine-4-carboxamide]	< 500
Cc1ccccc1CNC(=O)c1cnnc(-c2ccc(OCC3CC3)c(Cl)c2)c1 [Example 37, 6-[3-chloro-4-(cyclopropylmethoxy)phenyl]-N-(o-tolylmethyl)pyridazine-4-carboxamide]	< 500
[2H]C1([2H])OC([2H])([2H])C([2H])([2H])N(c2ncccc2CNC(=O)c2cnnc(-c3ccc(OCC4CC4)c(Cl)c3)c2)C1([2H])[2H] [Example 38, 6-[3-chloro-4-(cyclopropylmethoxy)phenyl]-N-[[2-(2,2,3,3,5,5,6,6-octadeuteriomorpholin-4-yl)-3-pyridyl]methyl]pyridazine-4-carboxamide]	< 500
O=C(NCc1cccnc1N1CCOC(C(F)(F)F)C1)c1cnnc(-c2ccc(OCC3CC3)c(Cl)c2)c1 (stereo not drawn) [Example 39, 6-[3-chloro-4-(cyclopropylmethoxy)phenyl]-N-[[2-[2-(trifluoromethyl)morpholin-4-yl]-3-pyridyl]methyl]pyridazine-4-carboxamide]	500 to 1000
O=C(NCc1cncc(F)c1)c1cnnc(-c2ccc(OCC3CC3)c(Cl)c2)c1 [Example 40, 6-[3-chloro-4-(cyclopropylmethoxy)phenyl]-N-[(5-fluoro-3-pyridyl)methyl]pyridazine-4-carboxamide]	< 500
CCC1CN(c2ncccc2CNC(=O)c2cnnc(-c3ccc(OCC4CC4)c(Cl)c3)c2)CCO1 (stereo not drawn) [Example 41, 6-[3-chloro-4-(cyclopropylmethoxy)phenyl]-N-[[2-(2-ethylmorpholin-4-yl)-3-pyridyl]methyl]pyridazine-4-carboxamide]	< 500
CC(C)Oc1ncccc1CNC(=O)c1cnnc(-c2ccc(OCC3CC3)c(Cl)c2)c1 [Example 42, 6-[3-chloro-4-(cyclopropylmethoxy)phenyl]-N-[(2-isopropoxy-3-pyridyl)methyl]pyridazine-4-carboxamide]	< 500
COc1ncccc1C(C)NC(=O)c1cnnc(-c2ccc(OCC3CC3)c(Cl)c2)c1 (stereo not drawn) [Example 43, 6-(3-chloro-4-(cyclopropylmethoxy)phenyl)-N-(1-(2-methoxypyridin-3-yl)ethyl)pyridazine-4-carboxamide]	500 to 1000
CC(Oc1ccc(-c2cc(C(=O)NCc3cccnc3N3CCOCC3)cnn2)cc1Cl)C1CC1 (stereo not drawn) [Example 45, 6-[3-chloro-4-(1-cyclopropylethoxy)phenyl]-N-[(2-morpholino-3-pyridyl)methyl]pyridazine-4-carboxamide]	< 500
O=C(NCc1cccnc1N1CCOCC1)c1cnnc(-c2ccc(OCC3CC3)c(F)c2)c1 [Example 46, 6-[4-(cyclopropylmethoxy)-3-fluoro-phenyl]-N-[(2-morpholino-3-pyridyl)methyl]pyridazine-4-carboxamide]	< 500
COc1ncccc1CNC(=O)c1cnnc(-c2ccc(OCC3CC3)cc2)c1 [Example 48, 6-[4-(cyclopropylmethoxy)phenyl]-N-[(2-methoxy-3-pyridyl)methyl]pyridazine-4-carboxamide]	> 1000
CC1COCCN1c1ncccc1CNC(=O)c1cnnc(-c2ccc(OCC3CC3)cc2)c1 (stereo not drawn) [Example 50, 6-[4-(cyclopropylmethoxy)phenyl]-N-[[2-(3-methylmorpholin-4-yl)-3-pyridyl]methyl]pyridazine-4-carboxamide]	> 1000
O=C(NCc1cccnc1N1CC2(COC2)C1)c1cnnc(-c2ccc(OCC3CC3)cc2)c1 [Example 52, 6-[4-(cyclopropylmethoxy)phenyl]-N-[[2-(2-oxa-6-azaspiro[3.3]heptan-6-yl)-3-pyridyl]methyl]pyridazine-4-carboxamide]	> 1000
N#Cc1ccc(-c2cc(C(=O)NCc3cc(F)cnc3N3CCOCC3)cnn2)cc1 [Example 53, 6-(4-cyanophenyl)-N-[(5-fluoro-2-morpholino-3-pyridyl)methyl]pyridazine-4-carboxamide]	500 to 1000
N#Cc1ccc(-c2cc(C(=O)NCc3ccccc3N3CCOCC3)cnn2)cc1 [Example 58, 6-(4-cyanophenyl)-N-[(2-morpholinophenyl)methyl]pyridazine-4-carboxamide]	< 500

Second part, the compound after the results:

IC50 [nM]	SMILES
> 1000	O=C(NCc1cncnc1N1CCOCC1)c1cnnc(-c2ccc(OCC3CC3)c(Cl)c2)c1 [Example 32, 6-[3-chloro-4-(cyclopropylmethoxy)phenyl]-N-[(4-morpholinopyrimidin-5-yl)methyl]pyridazine-4-carboxamide]
< 500	O=C(NCc1nccnc1N1CCOCC1)c1cnnc(-c2ccc(OCC3CC3)c(Cl)c2)c1 [Example 33, 6-[3-chloro-4-(cyclopropylmethoxy)phenyl]-N-[(3-morpholinopyrazin-2-yl)methyl]pyridazine-4-carboxamide]
500 to 1000	CS(=O)(=O)c1ccccc1CNC(=O)c1cnnc(-c2ccc(OCC3CC3)c(Cl)c2)c1 [Example 35, 6-[3-chloro-4-(cyclopropylmethoxy)phenyl]-N-[(2-methylsulfonylphenyl)methyl]pyridazine-4-carboxamide]
< 500	O=C(NCc1cccnc1N1CCOCC1)c1cnnc(-c2ccc(OCC3CCC3)c(Cl)c2)c1 [Example 44, 6-[3-chloro-4-(cyclobutylmethoxy)phenyl]-N-[(2-morpholino-3-pyridyl)methyl]pyridazine-4-carboxamide]
< 500	O=C(NCc1cccnc1N1CCOCC1)c1cnnc(-c2ccc(OCC3CC3)c(C(F)(F)F)c2)c1 [Example 47, 6-[4-(cyclopropylmethoxy)-3-(trifluoromethyl)phenyl]-N-[(2-morpholino-3-pyridyl)methyl]pyridazine-4-carboxamide]
> 1000	O=C(NCc1cc(F)cnc1N1CCOCC1)c1cnnc(-c2ccc(OCC3CC3)cc2)c1 [Example 49, 6-[4-(cyclopropylmethoxy)phenyl]-N-[(5-fluoro-2-morpholino-3-pyridyl)methyl]pyridazine-4-carboxamide]
< 500	O=C(NCc1ccccc1N1CCOCC1)c1cnnc(-c2ccc(Cl)cc2)c1 [Example 55, 6-(4-chlorophenyl)-N-[(2-morpholinophenyl)methyl]pyridazine-4-carboxamide]
< 500	O=C(NCc1ccccc1N1CCOCC1)c1cnnc(-c2ccc(OC(F)(F)F)cc2)c1 [Example 57, 6-[4-(trifluoromethoxy)phenyl]-N-[(2-morpholinophenyl)methyl]pyridazine-4-carboxamide]
